Where a SMILES comes first, the peptide text is derived from it.
Experiments:
Type in all cases: biochemical, bovine
[1] = molecular target: T1, farnesyl-protein transferase (Bos taurus, UniProt P29702+P49355); assay: Tetrapeptides tested as farnesylation substrates (TLC / autoradiography); details: for Farnesylation Substrate: peptide 200 µM, partially pure bovine farnesyl-protein transferase, 0.5 µM [3H] FPP, 30 min. at 30°C
T1 construct: partially pure bovine brain farnesyl-protein transferase; from tissue; host or cells: bovine brain (cerebral lobes)
Text: When a peptide was used as the acceptor substrate, there were two changes to the assay: (1) Ras protein was excluded and, (2) the reactions were stopped by the additon of one tenth volume of 0.5 M EDTA. A portion of the reaction mixture was spotted onto a TLC plate (silica gel 60 thin layer chromatography plates (20 cm x 20 cm, 0.25 mm layer thickness) were from E. Merck (Darrnstadt) and eluted with either ethyl acetate:pyridine: acetic acid:water (10:5:1:3) or n-propanol:water (7:3) elution systems. After drying under vacuum, the plates were sprayed with En³Hance and exposed to X-ray film at -70°C.
CAAX tetrapeptides and other tetrapeptides including Cys-Xaa¹-Xaa²-Xaa³-NRR¹ were tested as farnesylation substrates using [³H]FPP and partially pure bovine brain farnesyl-protein transferase. […] Thin layer chromatography (TLC) conditions were developed which resolved the substrates farnesyl diphosphate (Rf = 0.06) and CVLS (Rf = 0.28) and product S-farnesyl-CVLS (Rf = 0.58). These Rf values reflect TLC conditions using ethylacetate:pyridine: acetic acid:water (10:5:1:3) as the eluent. In another elution system, n-propanol:water (7:3), farnesyl-diphosphate (Rf= 0.18) was readily seperated from farnesylated tetrapeptides (examples: CAIS (Rf=0.84) and CAIM (Rf=0.83)). Quenched reaction mixtures containing peptide, farnesyl-diphosphate and farnesyl-protein transferase were separated by TLC followed by visualization of the radioactive species by autoradiography. […] Control peptides having a Cys to Ser substitution were not substrates.
The indicated peptides at 200 µM were incubated with partially pure bovine farnesyl-protein transferase and 0.5 µM [3H] FPP for 30 min. at 30°C. Autoradiographic exposure time was overnight (15-20 hr).

[2] = molecular target: T1, farnesyl-protein transferase; assay: Inhibition of Ras farnesylation in vitro; details: Ras-CVLS at 3.5 µM, 0.25 µM [³H]FPP, partially purified enzyme; average of 2-5 determinations; read-out: IC₅₀
Method: Polyisoprenylation of Ras- [³H]Farnesyl diphosphate (FPP) (20 Ci/mmol) was purchased from New England Nuclear. Farnesyl-protein transferase activity assays were carried out at 30°C unless noted otherwise. A typical reaction contained (in a final volume of 50 µl):[³H]farnesyl diphosphate, Ras protein (3.5µM), 50 mM HEPES, pH 7.5, 5 mM MgCl₂ 5 mM dithiothreitol and farnesyl-protein transferase. After thermally pre-equilibrating the assay mixture in the absence of enzyme, reactions were initiated by the addition of farnesyl-protein transferase and stopped at timed intervals by the addition of 1M HCl in ethanol (1 mL). The quenched reactions were allowed to stand for 15 minutes (to complete the precipitation process). After adding 2 mL of 100% ethanol, the reactions were vacuum-filtered through Whatmann GF/C filters. Filters were washed four time with 2 mL aliquots of 100% ethanol, mixed with scintillation fluid (10 mL) and then counted in a Beckmann LS3801 scintillation couter.
For inhibition studies, assays were run as described above, except putative inhibitors were added at the concentration indicated, IC₅₀ values were determined with both farnesyl-protein transferase substrates at their KM concentrations. The KM for Ras protein substrate having the CAAX sequence, CVLS, is 3.5 µM and the KM for FPP is 0.25µM.
Ras proteins used as substrates were expressed in E. coli and purified. […]

[3] = molecular target: T1, farnesyl-protein transferase; assay: Mechanism of inhibition using homogenous, pure farnesyl-protein transferase
Method: To prepare pure enzyme, the nonapeptide, […], was covalently bound to Affigel-10 under anhydrous conditions as described by the manufacturer (15 µmol peptide per 1 mL of Affigel-10). Unreacted resin was treated with ethanolamine. After multiple passes of ω-aminooctyl-agarose-column-purified protein over the peptide column, the column was washed and eluted as described by Reiss, et al., (1990) ibid, to recover farnesyl-protein transferase activity.

Farnesylation Substrate [1] | IC50 [2] | farnesylation substrate (result in words, TLC autoradiography) ([1]; [³H]FPP, partially pure bovine brain farnesyl-protein transferase) | mechanism of inhibition with respect to Ras-CVLS protein substrate [3] | mechanism of inhibition with respect to farnesyl diphosphate [3] | Compound
- (< 1% conversion) | 2.3 µM | – | – | – | CSCC[C@H](NC(=O)[C@H](Cc1ccccc1)NC(=O)[C@@H](NC(=O)[C@@H](N)CS)C(C)C)C(N)=O [CVFM-NH₂, Cys-Val-Phe-Met-NH₂] (H-CVFM-NH2)
- (< 1% conversion) | 16 µM | do not serve as effective substrates | competitive inhibitor | not a competitive inhibitor | CC(C)C[C@H](NC(=O)[C@@H](NC(=O)[C@@H](N)CS)C(C)C)C(=O)N[C@@H](CO)C(N)=O [CVLS-NH₂, Cys-Val-Leu-Ser-NH₂] (H-CVLS-NH2)

From EP0528486A2, “Non-substrate inhibitors of farnesyl protein transferase” (MERCK & CO. INC., priority 1991, dated 1993)
